In ChEMBL document CHEMBL1127146, “Synthesis and antitumor activity of a new class of pyrazolo[4,3-e]pyrrolo[1,2-a][1,4]diazepinone analogs of pyrrolo[1,4]benzodiazepines (PBDs)” (Bioorg Med Chem Lett, 1993):
Calls of active or inactive are those of the source. The rule behind the calls is not given here.

Columns and labels:
[1] = tested on: L1210; assay: Antitumor activity was evaluated in vitro on a L1210 tumor cell line; assay type: functional, cell-based; conditions: Mus musculus
[2] = tested on: L1210; assay: Antitumor activity was evaluated in vitro on a L1210 tumor cell line; IA means inactive; assay type: functional, cell-based; conditions: Mus musculus

| IC50 [1] [µM] | Compound | Activity [2] |
| --- | --- | --- |
| 22.4 | Cc1nn(C)c2c1N=C[C@@H]1CCCN1C2=O | – |
| – | Cc1c2c(nn1C)C(=O)N1CCC[C@H]1CN2 | inactive |
| – | CSC1=Nc2c(C)nn(C)c2C(=O)N2CCC[C@@H]12 | inactive |
| – | CSC1=Nc2c(nn(C)c2C)C(=O)N2CCC[C@@H]12 | inactive |
| – | Cc1nn(C)c2c1NC[C@@H]1CCCN1C2=O | inactive |
| 8.84 | Cc1c2c(nn1C)C(=O)N1CCC[C@H]1C=N2 | – |
